These are literature values, as cited in patent US10919926B2, “Compound or salt thereof, natural killer T cell activator, and pharmaceutical composition” (KEIO UNIVERSITY, priority 2016, dated 2021).

This series concerns RBL-CD1d cells and NKT hybridoma 2E10 cells. The note with it: previously known.

Turning to `CCCCCCCCCCCCCCCCCCCCCCCCCC(=O)N[C@@H](CO[C@H]1O[C@H](CO)[C@H](O)[C@H](O)[C@H]1O)[C@H](O)[C@H](O)CCCCCCCCCCCCCC` [α-GalCer, α-galactosylceramide], the “cytokine-inducing capacity compared with β-GalCer and C19” value was “higher than β-GalCer and C19”.
